What was measured:
Type in all cases: cell-based
Conditions in all cases: 24 hours of compound treatment
IKZF2 = biological target: T1, IKZF2 (Homo sapiens, UniProt Q96SW2+Q9UKS7); experiment: Western-blot assay of substrate protein degradation in hPBMCs, IKZF2
T1 construct: endogenous in cells; host or cells: hPBMCs (Milecell Biotechnologies)
Method: (§1) After 24 hours of compounds treatment, cells were harvested and lysed in RIPA protein lysate containing protease inhibitors on ice for 30 min, followed by centrifugation. The supernatant was aspirated as the extracted total cell protein. The protein concentration of the supernatant was determined using the conventional BCA (Bicinchoninic Acid) assay. • (2) To the collected supernatant, 5X SDS sample loading buffer was added, followed by denaturation at 95°C for 5 minutes. The denatured samples were then separated by SDS-PAGE electrophoresis on a polyacrylamide gel, transferred onto a nitrocellulose membrane (0.45 µm NC membrane), blocked with blocking buffer at room temperature for 1 hour, and subjected to antibody incubation and development procedures according to the antibody manufacturer's instructions (Cell Signaling Technology Company). […]
(§2) Target protein remaining (%) refers to the percentage of target protein remaining in cells after treatment with protein degrader compounds.
(§3) Calculation method for target protein remaining (%): Use ImageJ software to measure grayscale values of Western blot bands from drug (protein degrader)-treated samples. The grayscale value of drug-treated bands is divided by that of internal control protein bands, and the resulting quotient is normalized to obtain the relative percentage of remaining target protein after protein degrader treatment. Target protein degradation rate(%) = 1−target protein remaining(%). [formula]

IKZF1 = biological target: T2, IKZF1 (Homo sapiens, UniProt Q13422+Q96SW2); experiment: Western-blot assay of substrate protein degradation in hPBMCs, IKZF1
T2 construct: endogenous in cells; host or cells: hPBMCs (Milecell Biotechnologies)
Method: as §1, §2, §3

CK1α = biological target: T3, CK1α (Homo sapiens, UniProt P48729+Q96SW2); experiment: Western-blot assay of substrate protein degradation in hPBMCs, CK1α
T3 construct: endogenous in cells; host or cells: hPBMCs (Milecell Biotechnologies)
Method: as §1, §2, §3

WEE1 = biological target: T4, WEE1 (Homo sapiens, UniProt P30291+Q96SW2); experiment: Western-blot assay of substrate protein degradation in hPBMCs, WEE1
T4 construct: endogenous in cells; host or cells: hPBMCs (Milecell Biotechnologies)
Method: as §1, §2, §3

IKZF3 = biological target: T5, IKZF3 (Homo sapiens, UniProt Q96SW2+Q9UKT9); experiment: Western-blot assay of substrate protein degradation in hPBMCs, IKZF3
T5 construct: endogenous in cells; host or cells: hPBMCs (Milecell Biotechnologies)
Method: as §1, §2, §3

GSPT1 = biological target: T6, GSPT1 (Homo sapiens, UniProt P15170+Q96SW2); experiment: Western-blot assay of substrate protein degradation in hPBMCs, GSPT1
T6 construct: endogenous in cells; host or cells: hPBMCs (Milecell Biotechnologies)
Method: as §1, §2, §3

[1] = compounds tested at 50 nM and 500 nM (concentration of the table not stated)
[2] = 50 nM and 500 nM tested (concentration behind the class not stated)

T4 sequence (P30291 whole entry): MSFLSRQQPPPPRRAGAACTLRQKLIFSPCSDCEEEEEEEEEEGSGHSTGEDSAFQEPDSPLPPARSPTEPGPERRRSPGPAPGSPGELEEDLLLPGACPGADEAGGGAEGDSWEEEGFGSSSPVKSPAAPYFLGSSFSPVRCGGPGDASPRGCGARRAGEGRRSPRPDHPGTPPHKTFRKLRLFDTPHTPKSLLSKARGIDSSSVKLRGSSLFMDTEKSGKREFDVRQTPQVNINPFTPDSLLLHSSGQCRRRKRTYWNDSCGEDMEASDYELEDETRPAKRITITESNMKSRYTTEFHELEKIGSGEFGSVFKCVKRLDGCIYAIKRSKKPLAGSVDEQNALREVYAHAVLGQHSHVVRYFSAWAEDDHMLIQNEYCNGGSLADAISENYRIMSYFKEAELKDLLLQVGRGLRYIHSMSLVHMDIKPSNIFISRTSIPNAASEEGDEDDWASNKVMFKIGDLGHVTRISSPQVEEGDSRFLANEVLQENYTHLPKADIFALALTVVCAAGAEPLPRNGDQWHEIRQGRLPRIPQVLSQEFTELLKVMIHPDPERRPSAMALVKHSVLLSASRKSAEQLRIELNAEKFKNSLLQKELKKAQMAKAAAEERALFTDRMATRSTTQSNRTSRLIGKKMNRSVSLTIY
T4 sequence (Q96SW2 whole entry): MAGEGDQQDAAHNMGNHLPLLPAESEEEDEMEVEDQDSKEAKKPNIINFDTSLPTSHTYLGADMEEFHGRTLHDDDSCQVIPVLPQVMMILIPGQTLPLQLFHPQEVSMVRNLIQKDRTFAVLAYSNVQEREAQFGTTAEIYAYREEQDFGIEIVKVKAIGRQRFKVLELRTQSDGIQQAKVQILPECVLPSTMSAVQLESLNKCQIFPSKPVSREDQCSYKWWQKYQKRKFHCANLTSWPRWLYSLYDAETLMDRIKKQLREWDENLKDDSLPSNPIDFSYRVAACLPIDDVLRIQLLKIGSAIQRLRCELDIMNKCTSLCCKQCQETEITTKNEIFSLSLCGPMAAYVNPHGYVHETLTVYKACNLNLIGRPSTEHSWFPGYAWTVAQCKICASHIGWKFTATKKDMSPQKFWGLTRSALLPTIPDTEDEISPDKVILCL
T4 sequence (Q16531 whole entry partner): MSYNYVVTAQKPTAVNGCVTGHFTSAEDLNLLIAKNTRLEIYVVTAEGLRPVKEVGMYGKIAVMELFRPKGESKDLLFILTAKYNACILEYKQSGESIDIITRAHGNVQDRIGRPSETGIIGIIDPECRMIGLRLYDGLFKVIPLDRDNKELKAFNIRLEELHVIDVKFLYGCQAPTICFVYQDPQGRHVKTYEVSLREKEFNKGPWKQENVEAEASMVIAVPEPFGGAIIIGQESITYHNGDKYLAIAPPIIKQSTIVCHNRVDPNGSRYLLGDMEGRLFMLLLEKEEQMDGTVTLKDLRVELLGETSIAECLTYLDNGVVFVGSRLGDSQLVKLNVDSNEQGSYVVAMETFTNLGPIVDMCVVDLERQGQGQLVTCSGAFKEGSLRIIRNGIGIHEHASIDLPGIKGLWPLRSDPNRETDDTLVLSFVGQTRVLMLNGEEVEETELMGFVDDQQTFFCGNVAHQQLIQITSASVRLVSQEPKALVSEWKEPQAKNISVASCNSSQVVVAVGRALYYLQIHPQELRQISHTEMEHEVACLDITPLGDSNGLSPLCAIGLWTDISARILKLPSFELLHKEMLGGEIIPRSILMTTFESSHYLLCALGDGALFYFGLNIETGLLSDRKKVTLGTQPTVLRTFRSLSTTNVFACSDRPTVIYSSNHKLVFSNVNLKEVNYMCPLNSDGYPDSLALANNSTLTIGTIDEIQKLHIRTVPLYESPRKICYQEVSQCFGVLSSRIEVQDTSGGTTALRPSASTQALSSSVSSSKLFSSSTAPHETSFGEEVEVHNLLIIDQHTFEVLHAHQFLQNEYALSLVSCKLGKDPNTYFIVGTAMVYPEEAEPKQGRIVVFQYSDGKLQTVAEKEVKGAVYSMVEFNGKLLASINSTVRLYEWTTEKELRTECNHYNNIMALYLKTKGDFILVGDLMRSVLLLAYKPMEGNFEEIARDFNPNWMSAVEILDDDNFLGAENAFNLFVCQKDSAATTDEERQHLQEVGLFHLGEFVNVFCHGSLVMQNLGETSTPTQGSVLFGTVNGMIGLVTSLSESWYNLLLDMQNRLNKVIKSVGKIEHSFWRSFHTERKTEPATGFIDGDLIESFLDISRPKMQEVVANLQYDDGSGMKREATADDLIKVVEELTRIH
T5 sequence (Q9UKT9 whole entry): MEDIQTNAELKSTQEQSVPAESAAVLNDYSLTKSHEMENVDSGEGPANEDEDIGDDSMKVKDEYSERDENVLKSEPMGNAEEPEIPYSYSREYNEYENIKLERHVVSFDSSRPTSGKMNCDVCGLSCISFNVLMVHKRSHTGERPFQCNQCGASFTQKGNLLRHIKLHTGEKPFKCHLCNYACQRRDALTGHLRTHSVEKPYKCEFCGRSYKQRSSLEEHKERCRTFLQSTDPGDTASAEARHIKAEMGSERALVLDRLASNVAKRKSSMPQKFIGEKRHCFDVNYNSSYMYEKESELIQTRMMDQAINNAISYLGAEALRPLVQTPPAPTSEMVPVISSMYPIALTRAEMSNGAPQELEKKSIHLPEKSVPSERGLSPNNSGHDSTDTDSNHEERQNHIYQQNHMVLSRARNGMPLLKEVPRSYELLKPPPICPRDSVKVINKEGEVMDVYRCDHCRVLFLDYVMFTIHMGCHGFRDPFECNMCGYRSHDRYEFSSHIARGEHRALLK
T5 sequence (Q96SW2 whole entry): as the sequence (Q96SW2 whole entry) above
T5 sequence (Q16531 whole entry partner): as the sequence (Q16531 whole entry partner) above
T3 sequence (P48729 whole entry): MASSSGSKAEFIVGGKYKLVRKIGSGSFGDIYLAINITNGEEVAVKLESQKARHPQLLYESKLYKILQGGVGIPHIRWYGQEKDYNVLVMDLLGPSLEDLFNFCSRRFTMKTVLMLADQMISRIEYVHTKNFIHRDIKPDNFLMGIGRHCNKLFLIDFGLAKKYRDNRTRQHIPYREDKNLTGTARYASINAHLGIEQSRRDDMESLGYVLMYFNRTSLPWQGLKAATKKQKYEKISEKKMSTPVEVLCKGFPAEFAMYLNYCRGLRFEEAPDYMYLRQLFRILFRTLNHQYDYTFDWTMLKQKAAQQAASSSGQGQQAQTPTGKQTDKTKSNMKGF
T3 sequence (Q96SW2 whole entry): as the sequence (Q96SW2 whole entry) above
T3 sequence (Q16531 whole entry partner): as the sequence (Q16531 whole entry partner) above
T6 sequence (P15170 whole entry): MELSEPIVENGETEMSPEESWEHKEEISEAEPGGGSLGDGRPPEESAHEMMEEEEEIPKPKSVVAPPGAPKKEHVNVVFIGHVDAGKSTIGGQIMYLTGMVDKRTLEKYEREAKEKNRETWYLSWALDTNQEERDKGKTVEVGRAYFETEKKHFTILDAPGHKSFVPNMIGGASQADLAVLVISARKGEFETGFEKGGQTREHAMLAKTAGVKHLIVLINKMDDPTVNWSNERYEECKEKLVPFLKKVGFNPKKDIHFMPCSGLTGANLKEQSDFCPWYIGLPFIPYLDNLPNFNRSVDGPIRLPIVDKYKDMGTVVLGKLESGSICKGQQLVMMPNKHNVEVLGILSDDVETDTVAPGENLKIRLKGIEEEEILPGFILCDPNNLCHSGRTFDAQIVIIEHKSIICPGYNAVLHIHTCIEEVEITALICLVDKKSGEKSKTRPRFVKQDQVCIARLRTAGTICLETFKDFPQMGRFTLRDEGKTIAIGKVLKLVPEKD
T6 sequence (Q96SW2 whole entry): as the sequence (Q96SW2 whole entry) above
T6 sequence (Q16531 whole entry partner): as the sequence (Q16531 whole entry partner) above
T2 sequence (Q13422 whole entry): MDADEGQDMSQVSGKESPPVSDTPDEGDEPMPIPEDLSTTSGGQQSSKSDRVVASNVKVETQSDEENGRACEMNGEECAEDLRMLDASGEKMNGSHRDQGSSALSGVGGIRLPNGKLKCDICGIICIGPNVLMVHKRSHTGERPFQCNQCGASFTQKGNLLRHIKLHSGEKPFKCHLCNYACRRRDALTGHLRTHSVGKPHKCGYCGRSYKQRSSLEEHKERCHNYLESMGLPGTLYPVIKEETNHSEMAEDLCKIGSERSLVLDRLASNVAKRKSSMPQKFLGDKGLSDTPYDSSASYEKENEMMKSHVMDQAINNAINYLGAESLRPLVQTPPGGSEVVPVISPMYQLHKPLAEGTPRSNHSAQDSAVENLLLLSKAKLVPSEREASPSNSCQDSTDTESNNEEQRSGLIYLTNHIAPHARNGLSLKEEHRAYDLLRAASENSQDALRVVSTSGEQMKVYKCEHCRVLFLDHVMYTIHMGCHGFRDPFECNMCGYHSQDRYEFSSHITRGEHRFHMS
T2 sequence (Q96SW2 whole entry): as the sequence (Q96SW2 whole entry) above
T2 sequence (Q16531 whole entry partner): as the sequence (Q16531 whole entry partner) above

| SMILES | IKZF2 substrate protein remaining % (IKZF2; [1]) | IKZF 1 substrate protein remaining % (IKZF1; [1]) | CK1a substrate protein remaining % (CK1α; [1]) | Weel substrate protein remaining % (WEE1; [1]) | IKZF3 substrate protein remaining % (IKZF3; [1]) | GSPT1 substrate protein remaining % (GSPT1; [1]) | IKZF2 substrate protein remaining % (IKZF2; [2]) | IKZF 1 substrate protein remaining % (IKZF1; [2]) | CK1a substrate protein remaining % (CK1α; [2]) | Weel substrate protein remaining % (WEE1; [2]) | IKZF3 substrate protein remaining % (IKZF3; [2]) | GSPT1 substrate protein remaining % (GSPT1; [2]) |
| --- | --- | --- | --- | --- | --- | --- | --- | --- | --- | --- | --- | --- |
| O=C1CCC(N2Cc3cc(CN4CCN(Cc5ccc(C67CC8CC(CC(C8)C6)C7)cc5)CC4)ccc3C2=O)C(=O)N1 (stereo not drawn) [GT-03026, 3-(5-((4-(4-((3r,5r,7r)-adamantan-1-yl)benzyl)piperazin-1-yl)methyl)-1-oxoisoindolin-2-yl)piperidine-2,6-dione] | A (0% ≤ substrate protein remaining % ≤ 80%) | A (0% ≤ substrate protein remaining % ≤ 80%) | A (0% ≤ substrate protein remaining % ≤ 80%) | B (80%< substrate protein remaining %≤ 100%) | A (0% ≤ substrate protein remaining % ≤ 80%) | A (0% ≤ substrate protein remaining % ≤ 80%) | – | – | – | – | – | – |
| O=C1CCC(N2Cc3cc(CN4CCn5c(nnc5C(F)(F)F)C4)ccc3C2=O)C(=O)N1 (stereo not drawn) [GT-04199, 3-(1-oxo-5-((3-(trifluoromethyl)-5,6-dihydro-[1,2,4]triazolo[4,3-a]pyrazin-7(8H)-yl)methyl)isoindolin-2-yl)piperidine-2,6-dione] | A (0% ≤ substrate protein remaining % ≤ 80%) | B (80%< substrate protein remaining %≤ 100%) | B (80%< substrate protein remaining %≤ 100%) | A (0% ≤ substrate protein remaining % ≤ 80%) | A (0% ≤ substrate protein remaining % ≤ 80%) | B (80%< substrate protein remaining %≤ 100%) | – | – | – | – | – | – |
| O=C1CCC(N2Cc3c(CN4CCC(c5noc6cc(F)ccc56)CC4)cccc3C2=O)C(=O)N1 (stereo not drawn) [GT-04764, 3-(4-((4-(6-fluorobenzo[d]isoxazol-3-yl)piperidin-1-yl)methyl)-1-oxoisoindolin-2-yl)piperidine-2,6-dione] | B (80%< substrate protein remaining %≤ 100%) | B (80%< substrate protein remaining %≤ 100%) | A (0% ≤ substrate protein remaining % ≤ 80%) | A (0% ≤ substrate protein remaining % ≤ 80%) | B (80%< substrate protein remaining %≤ 100%) | A (0% ≤ substrate protein remaining % ≤ 80%) | – | – | – | – | – | – |
| O=C1CCC(N2C(=O)c3cccc(CN4CCC(c5noc6cc(F)ccc56)CC4)c3C2=O)C(=O)N1 (stereo not drawn) [GT-04770, 2-(2,6-dioxopiperidin-3-yl)-4-((4-(6-fluorobenzo[d]isoxazol-3-yl)piperidin-1-yl)methyl)isoindoline-1,3-dione] | B (80%< substrate protein remaining %≤ 100%) | B (80%< substrate protein remaining %≤ 100%) | B (80%< substrate protein remaining %≤ 100%) | B (80%< substrate protein remaining %≤ 100%) | B (80%< substrate protein remaining %≤ 100%) | A (0% ≤ substrate protein remaining % ≤ 80%) | – | – | – | – | – | – |
| O=C1CCC(N2C(=O)c3ccc(CN4CCC(c5noc6cc(F)ccc56)CC4)cc3C2=O)C(=O)N1 (stereo not drawn) [GT-04771, 2-(2,6-dioxopiperidin-3-yl)-5-((4-(6-fluorobenzo[d]isoxazol-3-yl)piperidin-1-yl)methyl)isoindoline-1,3-dione] | B (80%< substrate protein remaining %≤ 100%) | B (80%< substrate protein remaining %≤ 100%) | A (0% ≤ substrate protein remaining % ≤ 80%) | A (0% ≤ substrate protein remaining % ≤ 80%) | B (80%< substrate protein remaining %≤ 100%) | A (0% ≤ substrate protein remaining % ≤ 80%) | – | – | – | – | – | – |
| O=C1CCC(N2Cc3c(CN4CCN(c5cccc6sccc56)CC4)cccc3C2=O)C(=O)N1 (stereo not drawn) [GT-04914, 3-(4-((4-(benzo[b]thiophen-4-yl)piperazin-1-yl)methyl)-1-oxoisoindolin-2-yl)piperidine-2,6-dione] | B (80%< substrate protein remaining %≤ 100%) | A (0% ≤ substrate protein remaining % ≤ 80%) | A (0% ≤ substrate protein remaining % ≤ 80%) | A (0% ≤ substrate protein remaining % ≤ 80%) | B (80%< substrate protein remaining %≤ 100%) | A (0% ≤ substrate protein remaining % ≤ 80%) | – | – | – | – | – | – |
| O=C1CCC(N2Cc3c(CN4CCn5c(nnc5C(F)(F)F)C4)cccc3C2=O)C(=O)N1 (stereo not drawn) [GT-04920, 3-(1-oxo-4-((3-(trifluoromethyl)-5,6-dihydro-[1,2,4]triazolo[4,3-a]pyrazin-7(8H)-yl)methyl)isoindolin-2-yl)piperidine-2,6-dione] | A (0% ≤ substrate protein remaining % ≤ 80%) | A (0% ≤ substrate protein remaining % ≤ 80%) | B (80%< substrate protein remaining %≤ 100%) | A (0% ≤ substrate protein remaining % ≤ 80%) | A (0% ≤ substrate protein remaining % ≤ 80%) | A (0% ≤ substrate protein remaining % ≤ 80%) | – | – | – | – | – | – |
| O=C1CCC(N2C(=O)c3ccc(CN4CCn5c(nnc5C(F)(F)F)C4)cc3C2=O)C(=O)N1 (stereo not drawn) [GT-04921, 2-(2,6-dioxopiperidin-3-yl)-5-((3-(trifluoromethyl)-5,6-dihydro-[1,2,4]triazolo[4,3-a]pyrazin-7(8H)-yl)methyl)isoindoline-1,3-dione] | B (80%< substrate protein remaining %≤ 100%) | A (0% ≤ substrate protein remaining % ≤ 80%) | B (80%< substrate protein remaining %≤ 100%) | A (0% ≤ substrate protein remaining % ≤ 80%) | B (80%< substrate protein remaining %≤ 100%) | B (80%< substrate protein remaining %≤ 100%) | – | – | – | – | – | – |
| Cc1ccsc1N1CCN(Cc2ccc3c(c2)C(=O)N(C2CCC(=O)NC2=O)C3=O)CC1 (stereo not drawn) [GT-06214, 2-(2,6-dioxopiperidin-3-yl)-5-((4-(3-methylthiophen-2-yl)piperazin-1-yl)methyl)isoindoline-1,3-dione] | – | – | – | – | – | – | A (0% ≤ substrate protein remaining % ≤ 80%) | B (80%< substrate protein remaining %≤ 100%) | B (80%< substrate protein remaining %≤ 100%) | B (80%< substrate protein remaining %≤ 100%) | B (80%< substrate protein remaining %≤ 100%) | A (0% ≤ substrate protein remaining % ≤ 80%) |
| Cc1cc(N2CCN(Cc3ccc4c(c3)C(=O)N(C3CCC(=O)NC3=O)C4=O)CC2)cs1 (stereo not drawn) [GT-06218, 2-(2,6-dioxopiperidin-3-yl)-5-((4-(5-methylthiophen-3-yl)piperazin-1-yl)methyl)isoindoline-1,3-dione] | – | – | – | – | – | – | B (80%< substrate protein remaining %≤ 100%) | B (80%< substrate protein remaining %≤ 100%) | A (0% ≤ substrate protein remaining % ≤ 80%) | A (0% ≤ substrate protein remaining % ≤ 80%) | A (0% ≤ substrate protein remaining % ≤ 80%) | A (0% ≤ substrate protein remaining % ≤ 80%) |
| O=C1CCC(N2C(=O)c3ccc(CN4CC=C(c5cccs5)CC4)cc3C2=O)C(=O)N1 (stereo not drawn) [GT-06219, 2-(2,6-dioxopiperidin-3-yl)-5-((4-(thiophen-2-yl)-3,6-dihydropyridin-1(2H)-yl)methyl)isoindoline-1,3-dione] | – | – | – | – | – | – | B (80%< substrate protein remaining %≤ 100%) | B (80%< substrate protein remaining %≤ 100%) | A (0% ≤ substrate protein remaining % ≤ 80%) | A (0% ≤ substrate protein remaining % ≤ 80%) | A (0% ≤ substrate protein remaining % ≤ 80%) | A (0% ≤ substrate protein remaining % ≤ 80%) |
| Cc1cscc1C1=CCN(Cc2ccc3c(c2)C(=O)N(C2CCC(=O)NC2=O)C3=O)CC1 (stereo not drawn) [GT-06221, 2-(2,6-dioxopiperidin-3-yl)-5-((4-(4-methylthiophen-3-yl)-3,6-dihydropyridin-1(2H)-yl)methyl)isoindoline-1,3-dione] | – | – | – | – | – | – | A (0% ≤ substrate protein remaining % ≤ 80%) | A (0% ≤ substrate protein remaining % ≤ 80%) | A (0% ≤ substrate protein remaining % ≤ 80%) | A (0% ≤ substrate protein remaining % ≤ 80%) | A (0% ≤ substrate protein remaining % ≤ 80%) | A (0% ≤ substrate protein remaining % ≤ 80%) |
